Laboratory results reported in the OligoGym collection.
HELM strings list units from the 5' end as sugar, base in round brackets, then linkage (d deoxyribose, r ribose, m 2'-O-methyl, p phosphodiester). Strings are as the collection lists them; they lack the last nucleoside at the 3' end of the tested compound. [moe] = 2'-O-(2-methoxyethyl) (MOE); [sp] = phosphorothioate linkage; [m5C] = 5-methylcytosine

Biological target: SCN2A
Test: mouse, dose not given
Conditions: ASO

RNA1{[moe]([m5C])[sp].[moe](G)p.[moe](A)p.[moe](A)p.d(T)[sp].d(T)[sp].d([m5C])[sp].d(T)[sp].d(A)[sp].d(T)[sp].d(T)[sp].d(T)[sp].d(T)[sp].d(A)[sp].[moe](T)p.[moe](A)p.[moe](A)p.[moe](A)[sp].[moe](T)}$$$$ (last 3' nucleoside missing)
3 h FOB score: 1 score 0-7

RNA1{[moe](G)[sp].[moe](A)p.[moe]([m5C])p.[moe]([m5C])p.[moe](A)p.[moe]([m5C])p.d(G)[sp].d([m5C])[sp].d(T)[sp].d(T)[sp].d(A)[sp].d([m5C])[sp].d(A)[sp].d(T)[sp].d([m5C])[sp].d(A)[sp].[moe](A)p.[moe](A)[sp].[moe]([m5C])}$$$$ (last 3' nucleoside missing)
3 h FOB score: 0 score 0-7

RNA1{[moe](G)[sp].[moe](G)p.[moe](T)p.[moe]([m5C])p.[moe](T)p.d([m5C])[sp].d(T)[sp].d(T)[sp].d(A)[sp].d(G)[sp].d([m5C])[sp].d(T)[sp].d(T)[sp].d(T)[sp].d([m5C])[sp].[moe](T)p.[moe]([m5C])p.[moe](T)[sp].[moe](T)}$$$$ (last 3' nucleoside missing)
3 h FOB score: 4 score 0-7

RNA1{[moe](T)[sp].[moe](T)p.[moe](T)p.[moe](G)p.[moe]([m5C])p.[moe]([m5C])p.d(A)[sp].d(T)[sp].d(T)[sp].d(T)[sp].d([m5C])[sp].d(T)[sp].d(A)[sp].d(T)[sp].d(A)[sp].d(A)[sp].[moe]([m5C])p.[moe](T)[sp].[moe]([m5C])}$$$$ (last 3' nucleoside missing)
3 h FOB score: 0 score 0-7

RNA1{[moe](G)[sp].[moe](T)p.[moe](A)p.[moe](A)p.[moe]([m5C])p.[moe]([m5C])p.d(T)[sp].d(T)[sp].d(T)[sp].d(A)[sp].d(T)[sp].d(A)[sp].d([m5C])[sp].d(A)[sp].d(T)[sp].d(T)[sp].[moe](T)p.[moe](A)[sp].[moe](A)}$$$$ (last 3' nucleoside missing)
3 h FOB score: 0 score 0-7

RNA1{[moe](T)[sp].[moe]([m5C])p.[moe](T)p.[moe]([m5C])p.[moe](T)p.d(T)[sp].d(T)[sp].d([m5C])[sp].d(T)[sp].d(T)[sp].d(A)[sp].d(T)[sp].d(T)[sp].d(T)[sp].d([m5C])[sp].[moe](T)p.[moe](G)p.[moe](T)[sp].[moe](T)}$$$$ (last 3' nucleoside missing)
3 h FOB score: 0 score 0-7

RNA1{[moe]([m5C])[sp].[moe](A)p.[moe](G)p.[moe]([m5C])p.[moe](A)p.[moe](T)p.d(G)[sp].d(T)[sp].d(T)[sp].d(T)[sp].d(A)[sp].d(T)[sp].d([m5C])[sp].d(T)[sp].d(T)[sp].d(A)[sp].[moe](G)p.[moe](T)[sp].[moe](T)}$$$$ (last 3' nucleoside missing)
3 h FOB score: 0 score 0-7

RNA1{[moe]([m5C])[sp].[moe](A)p.[moe](T)p.[moe](G)p.[moe](T)[sp].d(A)[sp].d(A)[sp].d([m5C])[sp].d([m5C])[sp].d(T)[sp].d(T)[sp].d(T)[sp].d(A)[sp].[moe](T)p.[moe](A)p.[moe]([m5C])[sp].[moe](A)}$$$$ (last 3' nucleoside missing)
3 h FOB score: 0 score 0-7

RNA1{[moe](G)[sp].[moe](A)p.[moe]([m5C])p.[moe]([m5C])p.d(G)[sp].d(A)[sp].d(A)[sp].d(T)[sp].d(T)[sp].d([m5C])[sp].d(T)[sp].d(A)[sp].d(T)[sp].d(T)[sp].[moe](T)p.[moe](T)p.[moe](A)p.[moe](T)[sp].[moe](A)}$$$$ (last 3' nucleoside missing)
3 h FOB score: 0 score 0-7

RNA1{[moe](T)[sp].[moe](G)p.[moe]([m5C])p.[moe](A)p.[moe](T)p.[moe](G)[sp].d(T)[sp].d(A)[sp].d(A)[sp].d([m5C])[sp].d([m5C])[sp].d(T)[sp].d(T)[sp].d(T)[sp].[moe](A)p.[moe](T)[sp].[moe](A)}$$$$ (last 3' nucleoside missing)
3 h FOB score: 0 score 0-7

RNA1{[moe]([m5C])[sp].[moe](A)p.[moe](T)p.[moe](G)p.[moe]([m5C])p.[moe](A)p.d(T)[sp].d(A)[sp].d(A)[sp].d(T)[sp].d([m5C])[sp].d([m5C])[sp].d([m5C])[sp].d(A)[sp].d(T)[sp].d(T)[sp].[moe](A)p.[moe](T)[sp].[moe](A)}$$$$ (last 3' nucleoside missing)
3 h FOB score: 0 score 0-7

RNA1{[moe]([m5C])[sp].[moe]([m5C])p.[moe](A)p.[moe](T)p.[moe](T)p.d(T)[sp].d([m5C])[sp].d(T)[sp].d(A)[sp].d(T)[sp].d(A)[sp].d(A)[sp].d([m5C])[sp].d(T)[sp].d([m5C])[sp].[moe](A)p.[moe](G)p.[moe]([m5C])[sp].[moe](A)}$$$$ (last 3' nucleoside missing)
3 h FOB score: 0 score 0-7

RNA1{[moe]([m5C])[sp].[moe](A)p.[moe](T)p.[moe](A)p.d(A)[sp].d(T)[sp].d([m5C])[sp].d([m5C])[sp].d([m5C])[sp].d(A)[sp].d(T)[sp].d(T)[sp].d(A)[sp].d(T)[sp].[moe](A)p.[moe]([m5C])p.[moe](A)p.[moe](A)[sp].[moe](A)}$$$$ (last 3' nucleoside missing)
3 h FOB score: 0 score 0-7

RNA1{[moe]([m5C])[sp].[moe]([m5C])p.[moe](G)p.[moe](A)p.d(A)[sp].d(T)[sp].d(T)[sp].d([m5C])[sp].d(T)[sp].d(A)[sp].d(T)[sp].d(T)[sp].d(T)[sp].d(T)[sp].[moe](A)p.[moe](T)p.[moe](A)p.[moe](A)[sp].[moe](A)}$$$$ (last 3' nucleoside missing)
3 h FOB score: 0 score 0-7

RNA1{[moe]([m5C])[sp].[moe]([m5C])p.[moe](G)p.[moe](A)p.[moe](A)p.d(T)[sp].d(T)[sp].d([m5C])[sp].d(T)[sp].d(A)[sp].d(T)[sp].d(T)[sp].d(T)[sp].d(T)[sp].d(A)[sp].[moe](T)p.[moe](A)p.[moe](A)[sp].[moe](A)}$$$$ (last 3' nucleoside missing)
3 h FOB score: 0.67 score 0-7

RNA1{[moe](T)[sp].[moe](T)p.[moe](T)p.[moe](G)p.[moe](G)p.d(G)[sp].d(T)[sp].d([m5C])[sp].d(T)[sp].d([m5C])[sp].d(T)[sp].d(T)[sp].d(A)[sp].d(G)[sp].d([m5C])[sp].[moe](T)p.[moe](T)p.[moe](T)[sp].[moe]([m5C])}$$$$ (last 3' nucleoside missing)
3 h FOB score: 3.33 score 0-7

RNA1{[moe](A)[sp].[moe](T)p.[moe](T)p.[moe]([m5C])p.[moe](T)p.[moe](A)p.d(T)[sp].d(T)[sp].d(T)[sp].d(T)[sp].d(A)[sp].d(T)[sp].d(A)[sp].d(A)[sp].d(A)[sp].d(T)[sp].[moe](G)p.[moe]([m5C])[sp].[moe]([m5C])}$$$$ (last 3' nucleoside missing)
3 h FOB score: 2 score 0-7

RNA1{[moe](T)[sp].[moe]([m5C])p.[moe](A)p.[moe](T)p.[moe](G)p.[moe]([m5C])p.d(A)[sp].d(T)[sp].d(A)[sp].d(A)[sp].d(T)[sp].d([m5C])[sp].d([m5C])[sp].d([m5C])[sp].d(A)[sp].d(T)[sp].[moe](T)p.[moe](A)[sp].[moe](T)}$$$$ (last 3' nucleoside missing)
3 h FOB score: 0 score 0-7

RNA1{[moe]([m5C])[sp].[moe](A)p.[moe](T)p.[moe](A)p.[moe](A)p.d(T)[sp].d([m5C])[sp].d([m5C])[sp].d([m5C])[sp].d(A)[sp].d(T)[sp].d(T)[sp].d(A)[sp].d(T)[sp].d(A)[sp].[moe]([m5C])p.[moe](A)p.[moe](A)[sp].[moe](A)}$$$$ (last 3' nucleoside missing)
3 h FOB score: 0 score 0-7
